One block for each compound: values may come before it.
Key:
FOXM1 [1] = biological target: T1, FOXM1 (Homo sapiens, UniProt Q08050); assay: Intracellular localization of FOXM1 (immunofluorescence, nuclear/cytoplasmic fractionation); type: cell-based; parameters: endogenous in cells; host or cells: MDA-MB-231, MCF7; conditions: 24 h, Western blot of nuclear and cytoplasmic extracts
T1 sequence (Q08050 1-763): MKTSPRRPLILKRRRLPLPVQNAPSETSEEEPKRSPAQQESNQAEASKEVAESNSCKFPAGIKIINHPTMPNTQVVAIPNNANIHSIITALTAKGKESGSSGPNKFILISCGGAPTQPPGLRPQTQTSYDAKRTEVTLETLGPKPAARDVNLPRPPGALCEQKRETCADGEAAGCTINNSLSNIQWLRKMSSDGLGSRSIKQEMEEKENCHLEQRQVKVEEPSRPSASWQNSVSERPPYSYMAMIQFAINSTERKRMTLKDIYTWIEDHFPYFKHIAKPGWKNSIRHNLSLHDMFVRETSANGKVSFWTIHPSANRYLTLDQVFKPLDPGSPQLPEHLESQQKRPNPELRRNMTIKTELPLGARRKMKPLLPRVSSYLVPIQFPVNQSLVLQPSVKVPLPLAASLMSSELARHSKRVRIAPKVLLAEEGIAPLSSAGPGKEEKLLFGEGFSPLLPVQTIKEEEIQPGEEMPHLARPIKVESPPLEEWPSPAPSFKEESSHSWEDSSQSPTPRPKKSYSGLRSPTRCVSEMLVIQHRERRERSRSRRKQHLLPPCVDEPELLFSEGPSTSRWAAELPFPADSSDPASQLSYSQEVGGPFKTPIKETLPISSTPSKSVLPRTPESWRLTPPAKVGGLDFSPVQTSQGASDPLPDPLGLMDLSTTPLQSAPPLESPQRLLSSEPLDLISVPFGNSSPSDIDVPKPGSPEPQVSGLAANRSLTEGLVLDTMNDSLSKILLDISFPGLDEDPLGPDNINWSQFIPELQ
Method: (§1) In some cases, treatments with compound were done in the presence of the proteasome inhibitor MG132 (Calbiochem) as described in the figure legend. […] Band intensities were analyzed with Licor Odyssey 2.1 software. All blots shown together derive from the same experiment and were processed in parallel. Full uncropped images of blots are shown as supplementary figures in the Supplementary Information file. Molecular weight markers were Rainbow markers from GE Healthcare (38–225 kDa) or Precision Plus Dual Color Markers from Biorad (37–250 kDa).

[2] = system: human breast cancer cell lines (DT22, MCF7, T47D, BT474, MDA-MB-453, MDA-MB-468, MDA-MB-231); assay: Cell proliferation (WST-1) in panel of breast cancer cell lines; type: cell-based; conditions: cells in culture
Method: WST-1 assay (Roche, Basel, Switzerland) was used to quantify cell viability as described.[38] Absorbance was measured at 450 nm using a VICTOR X5 PerkinElmer 2030 Multilabel Plate Reader. All assays were performed in triplicate and analyzed using Graph Pad Prism 8.0.

[3] = system: FOXM1 target gene expression in MCF7 cells; assay: FOXM1 target gene expression by qRT-PCR; type: cell-based, human; conditions: MCF7, 24 h, compound at its IC50 for proliferation
Method: Total RNA was isolated using TRIzol (Invitrogen) and reverse transcribed using […] reverse transcriptase (New England BioLabs). Real-time PCR was performed using SYBRgreen PCR Master Mix (Quantabio) as described.[15] Relative mRNA levels of genes were normalized to the housekeeping gene 36B4, and fold-change calculated relative to the vehicle treated samples. Results are the average ± SD from at least two independent experiments carried out in triplicate. Primer sequences for the genes studied were obtained from the Harvard Primer Bank. Sequences are available on their website.

FOXM1 [4] = biological target: T1, FOXM1; assay: tr-FRET competitive binding assay with Fl-NB-72 probe; parameters: we attached a terbium donor to purified, full length FOXM1 through a streptavidin-biotin linker; conditions: calculated from IC50 values; Supplementary Table 1; read-out: Ki, affinity for binding to FOXM1 protein
Method: Competitive binding assays of compound binding to FOXM1 by tr-FRET were done in FRET buffer (20 mM Tris, pH 7.5, 50 mM NaCl, 0.01% NP-40 detergent, 10% glycerol) with 0.3 mg/ml ovalbumin and 0.1 mM butylated hydroxy-anisole added fresh daily. Solutions of the protein, fluorescent probe and compound dilutions were prepared at 3× concentrations, the final dilution taking place as they were mixed together in equal portions on the microtiter plate.
Final concentrations were 10^−5 M to 10^−9 M, with the last point being buffer only, no compound. Fluorescein-NB-72 (Fl-NB- 72) was prepared at 1 mM in DMF and stored at −20 °C. It was diluted into FRET buffer to give 100 nM in the assay. Incubations were done in duplicate on black Molecular Devices 96-well microtiter plates. 5 μl of Fl-NB-72 and 5 μl of the compound dilutions, were mixed together on the plate. To this was added 5 µl biotin-FoxM1 and incubated in the dark at room temperature, for 1 h. […] To correct for background signals, biotin-FOXM1 was omitted, and diffusion-enhanced FRET incubations were done in duplicate on black Molecular Devices 96-well microtiter plates. Five microliter of Fl-NB-72 and 5 μl of the compound solutions were mixed together and then 5 µl of FRET buffer plus SaTb was added, mixed and incubated in the dark at room temperature, for 1 h. The tr-FRET signals measured as above were subtracted as a background from the first incubations that contained biotin-FOXM1. Graphs were prepared using Graph Pad/Prism 4.

FOXM1 [5] = biological target: T1, FOXM1; assay: Cellular FOXM1 protein level by Western blot; type: cell-based; parameters: endogenous in cells; host or cells: MDA-MB-231, MCF7; conditions: MDA-MB-231 or MCF7 cells over time; NB-55 5/8 µM, NB-73 1.5/4 µM, NB-115 4 µM, FDI-6 8 µM
Method: as §1, with “For Western blot analysis, whole-cell extracts were prepared using 1X RIPA lysis buffer (Thermo Fisher) supplemented with 1X protease inhibitor cocktail (Millipore Sigma). […] In some” for “In some”

MCF7 cells = assay: RNA-Seq gene regulation in MCF7 cells; type: cell-based, human; conditions: for genes regulated more than 2-fold (Venn diagram): MCF7, 9 h treatment, p < 0.05, FDI-6 20 µM
Method: (§2) For gene expression analysis, total RNA was extracted from cells using Trizol reagent and further cleaned using the Turbo DNase and RNAqueous kits (ThermoFisher). Cells were treated with Veh (0.1% EtOH), or with the compounds indicated for 9 h or 24 h. Once the sample quality and replicate reproducibility were verified, samples from each group were subjected to sequencing. RNA at a concentration of 100 ng/µl in nuclease-free water was used for library construction. cDNA libraries were prepared with the mRNA-TruSeq Kit (Illumina, Inc.). In brief, the poly-A containing mRNA was purified from total RNA, the RNA was fragmented, double-stranded cDNA was generated from fragmented RNA, and adapters were ligated to the ends.
The paired-end read data from the HiSeq 4000 were processed and analyzed through a series of steps. Base calling and de-multiplexing of samples within each lane were done with Casava 1.8.2. The RNA sequences were prepared with Illumina’s TruSeq Stranded mRNAseq Sample Prep kit. Reads were trimmed of adapters and low expression data using Trimmomatic version 0.38.[42] The STAR alignment tool version 2.5.3a was used to align the sequenced reads to the GRCh37 human genome from Ensembl.[43] Gene counts were calculated using subread version 1.5.2.[44],[45] The edgeR Bioconductor package in R was used for normalization and differential expression analysis. Default normalization methods were used, specifically trimmed mean of M values or TMM was used to calculate the normalized expression values. This method calculates the weighted trimmed mean of the log expression ratios in a gene-wise fashion.[46],[47] We considered genes with fold-change > 2 and p-value < 0.05 as statistically significant, differentially expressed.

[6] = Pharmacokinetics in mice after single s.c. or oral dose; type: in vivo, female CD1 mice; conditions: for AUC / Cmax / half-life: female, CD1, mouse, 60 mg/kg, single dose, plasma
Method: The pharmacokinetics of compounds were monitored after single dose administration into female CD1 mice (7–9 weeks of age) via s.c. injection or oral gavage, as described.[39] For s.c. injection, each compound was dissolved in DMSO and then mixed with corn oil for a total injection volume of 100 μL (10% DSMO + 90% corn oil) per mouse. For oral gavage, compounds were administered in a 200 µL formulation of 9/0.5/0.5/90 parts of PEG400/Tween80/Povidone/0.5% Carboxymethylcellulose in DI water. […] Compounds were quantified by LC-MS/MS at the University of Illinois Metabolomics Core Facility. The data were fitted to a non-compartment model.

MDA-MB-231 cells [7] = assay: Cell cycle analysis by flow cytometry; type: cell-based, human; conditions: synchronized, released 24 h, 1.5, 3.0, 4.5 µM
Method: Cells were synchronized by double thymidine block prior to cell cycle analysis by Propidium Iodide (PI) staining. Briefly, the cells were blocked with 2 mM thymidine for 18 h, then released with fresh media for 8 h followed by re-blocking with thymidine for another 16 h. Following the second block, the cells were released with or without treatments with the NB compounds and cells were collected and fixed in 70% ethanol at the time points indicated. After alcohol fixation for 2 h, the cells were washed with cold 1XPBS followed by staining with 50 µg/ml PI solution in PBS with addition of 5 µg/ml RNAse A for at least 4 h. The cells were then analyzed by the Flow Cytometry analyzer BD LSR II for percentage of cells in G1/G0, S, and G2/M phases of the cell cycle.

[8] = system: DT22 breast tumor xenografts; assay: DT22 human breast tumor xenograft growth in NSG mice; type: in vivo; conditions: for tumor growth: DT22 tumors, NSG mice
Method: For examination of the effects of compounds on breast tumor growth suppression, intact female NOD/SCID-gamma (NSG) mice were used as detailed previously.[39] DT-22 breast cancer cells (1 × 10^6 cells/mouse) were injected s.c. into the right axial mammary gland. Mice received s.c. injection or oral gavage daily or every second or third day as indicated, with vehicle or treatment compound, and tumor volume (length × width^2/2) was monitored over time.

[9] = system: FOXM1-regulated genes in DT22 tumors; assay: FOXM1-regulated gene expression in xenograft tumors by q-PCR; type: in vivo, NSG mice; conditions: 10 mg/kg NB-73 s.c., end of treatment
Source text: Primer sequences for the genes studied were obtained from the Harvard Primer Bank. Sequences are available on their website.

Caspase 3/7 activity = assay: Caspase Glo 3/7 assay; type: cell-based, human; conditions: 1.5 or 3 µM, 24 h
Method: (§3) The cells were analyzed for percentage of apoptotic cells following 24 h or 72 h of vehicle or compound treatment by staining with the Alexa Fluor® 488 Annexin V/Dead Cell Apoptosis Kit (Thermo Fisher) and flow cytometry according to the manufacturer’s protocol. Caspase activity in the cells after treatment with control vehicle or compounds was determined using the Caspase-Glo 3/7 Assay system (Promega) in a 96-well format following the manufacturer’s instructions. Supplementary Figs 6 and 7 exemplify the gating strategy used for the cell cycle and apoptosis flow cytometry analyses.

[10] = system: tamoxifen-resistant MCF7 breast cancer cells; assay: Proliferation of tamoxifen-resistant MCF7 cells; type: cell-based, human; conditions: 6 days, cell numbers
Method: resistant MCF7 cells. Cells were treated with NB-73 or trans-hydroxytamoxifen (OH-
Tam) for 6 days and cell numbers were monitored. Values are mean ± SD of three
(1 picture or pasted object on this page, not shown here)

MDA-MB-231 cells [11] = assay: Apoptosis by AnnexinV/propidium iodide flow cytometry; type: cell-based, human; conditions: 1.5 or 3 µM, 24 h or 72 h
Method: as §3

[12] = system: FOXM1 target genes in MDA-MB-231 cells; assay: RNA-Seq Gene Set Enrichment Analysis against FOXM1 target gene sets; type: cell-based, human; conditions: NB-73 […] 24 h, siFOXM1 25 nM 72 h
Method: as §2
The paired-end read data from the HiSeq 4000 were processed and analyzed through a series of steps. […] Reads were trimmed of adapters and low expression data using Trimmomatic version 0.38.[42] The STAR alignment tool version 2.5.3a was used to align the sequenced reads to the GRCh37 human genome from Ensembl.[43] Gene counts were calculated using subread version 1.5.2.[44],[45] […]
Gene Set Enrichment Analysis (GSEA)[48] was used for examination of our genome-wide expression profiles. Overrepresented gene ontology (GO) biological processes were determined by the web-based DAVID Bioinformatics Resources database.[49],[50] […]

- Ki (FOXM1 [4]): 143 nM
- intracellular level of FOXM1 (FOXM1 [5]): minimally affected
- blood levels ([6]; oral, 40 mg/kg): undetectable
- blood levels ([6]; s.c., 20 mg/kg): only very low blood levels
SMILES: Nc1c(C(=O)Nc2ccc(F)cc2)sc2nc(-c3cccs3)cc(C(F)(F)F)c12 [FDI-6, reference compound]
- intracellular localization of FOXM1 (FOXM1 [1]): does not change the intracellular localization of FOXM1
- potency in cells in culture [2]: potency similar to NB-55
- expression of ATF3, a gene suppressed by FOXM1 [3]: increased expression of ATF3
- expression of FOXM1 stimulated target genes (FOXM1C, AURKB, CCNB1, PLK1) [3]: significantly reduced the expression
- genes regulated that overlapped with NB-73 regulated genes (MCF7 cells; MCF7, 9 h, more than 2-fold, FDR < 0.05): 48%
- genes regulated more than 2-fold (Venn diagram) (MCF7 cells): 664 genes

SMILES: C[N+]1(CCCCCCOc2ccc(C(=C3C4CC5CC(C4)CC3C5)c3ccc(OCCCCCC[N+]4(C)CCCCCC4)cc3)cc2)CCCCCC1 [NB-73]
- percent of cells in G2/M (MDA-MB-231 cells [7]): large increase in the percent of cells in G2/M
- percent of cells in S phase (MDA-MB-231 cells [7]): decrease in the percent of cells in S phase
- tumor growth ([8]; 5 mg/kg s.c. daily then every other day from day 21): reduced tumor growth
- tumor growth ([8]; 10 mg/kg s.c. daily then every other day from day 21): more markedly suppressed growth
- tumor growth ([8]; s.c., 20 mg/kg every other day for 10 days then 10 mg/kg every other day): greatly suppress tumor growth
- tumor growth in vivo ([8]; low doses (2–20 mg/kg) s.c. daily or every other day): greatly suppress tumor growth
- expression of FOXM1-regulated genes in tumors [9]: greatly reduced
- caspase 3/7 activity (Caspase 3/7 activity): increased
- proliferation of tamoxifen-resistant MCF7 cells [10]: effectively suppressed the proliferation
- expression of ATF3, a gene suppressed by FOXM1 [3]: increased expression of ATF3
- expression of FOXM1 stimulated target genes (FOXM1C, AURKB, CCNB1, PLK1) [3]: significantly reduced the expression
- percent of apoptotic cells (MDA-MB-231 cells [11]): increased the percent of apoptotic cells
- genes regulated more than 2-fold (Venn diagram) (MCF7 cells): 870 genes
- blood levels of compound ([6]; after oral administration): only very low levels
- blood levels of compound ([6]; after s.c. injection): very high blood levels
- AUC ([6]; oral): 0.015 µM·h
- Cmax ([6]; oral): 5.5 nM
- half-life ([6]; oral): 2420 min
- AUC ([6]; sc): 158 µM·h
- Cmax ([6]; sc): 5300 nM
- half-life ([6]; sc): 1880 min
- normalized enrichment score (NES), FOXM1 target gene set [12]: -1.32

— PMC6884575, “Suppression of FOXM1 activities and breast cancer growth in vitro and in vivo by a new class of compounds” (NPJ Breast Cancer, 2019)
